Converted amounts (≈) assume the structure as drawn.
How the values were obtained:
[1] = biological target: T1, Mtb-FtsZ (Mycobacterium tuberculosis, UniProt P9WN95); assay: Mtb-FtsZ polymerization inhibitory assay; format: biochemical; conditions: light scattering, Mtb-FtsZ 15 μM, GTP 100 μM
[2] = biological target: T1, Mtb-FtsZ; assay: Transmission electron microscopy; format: biochemical; conditions: Mtb-FtsZ 5 μM, GTP 25 μM
[3] = Cytotoxicity, MTT assay; format: cell-based; conditions: African green monkey, Vero cells
[4] = tested on: Mtb H37Rv; assay: MIC determination by microplate Alamar Blue assay; format: cell-based; conditions: Mycobacterium tuberculosis, read-out: MIC Mtb H37Rv

T1 sequence (P9WN95 whole entry): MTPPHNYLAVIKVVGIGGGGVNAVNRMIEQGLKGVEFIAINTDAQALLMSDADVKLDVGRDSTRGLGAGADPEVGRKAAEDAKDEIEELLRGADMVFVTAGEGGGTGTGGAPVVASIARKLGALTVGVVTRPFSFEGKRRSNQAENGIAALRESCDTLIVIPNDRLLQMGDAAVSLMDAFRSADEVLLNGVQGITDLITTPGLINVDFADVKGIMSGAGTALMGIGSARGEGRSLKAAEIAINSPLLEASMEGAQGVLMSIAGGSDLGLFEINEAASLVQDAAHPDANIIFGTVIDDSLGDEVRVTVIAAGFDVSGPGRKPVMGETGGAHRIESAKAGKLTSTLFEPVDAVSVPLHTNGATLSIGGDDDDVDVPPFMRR

For `CCCCOC(=O)Nc1cc2nc(C3CCCCC3)[nH]c2cc1Oc1ccc(F)cc1` [Compound 5a, 5-Butoxycarbonylamino-2-cyclohexyl-6-(4-fluorophenoxy)-1H-benzo[d]imidazole], the “Inhibition of FtsZ polymerization” value [1] was “inhibited FtsZ polymerization in a dose-dependent manner”, the “Effect on FtsZ polymers in TEM” value ([2]; 5a 40 μM) was “the length, density and aggregation was visibly reduced” and the “Effect on FtsZ polymers in TEM” value ([2]; 5a 80 μM) was “very short and dispersed FtsZ polymers were observed”.

For `O=C(Nc1cc2nc(C3CCCCC3)[nH]c2cc1Oc1ccc(F)cc1)c1ccc(F)cc1F` [Compound 5d, 2-Cyclohexyl-5-(2,4-difluorobenzamido)-6-(4-fluorophenoxy)-1H-benzo[d]imidazole], the “Inhibition of FtsZ polymerization” value [1] was “inhibited FtsZ polymerization in a dose-dependent manner”.

For `Cc1ccc(C(=O)Nc2cc3nc(C4CCCCC4)[nH]c3cc2Sc2ccccc2)cc1` [Compound 5f, 2-Cyclohexyl-5-(4-methxylbenzamido)-6-(phenylthio)-1H-benzo[d]imidazole], the IC50 at 3 days [3] was > 200 µM.

Work on `CCCCSc1cc2[nH]c(C3CCCCC3)nc2cc1NC(=O)c1ccc(C)cc1` [Compound 5i, 6-(Butylthio)-5-(4-metylbenzamido)-2-cyclohexyl-1H-benzo[d]imidazole] yielded an MIC [4] of 1.25 µg/mL (≈ 2.96 µM).

Source: paper PMC4045703 (Bioorganic & medicinal chemistry, 2014)
